Data on 10 molecules can be found in patent US8759033B2, “CSNR-deficient actinobacteria for the production of an enzyme having chitosanase activity” (Socpra Sciences et Genie S.E.C., priority 2012, dated 2014).

In data set [1] the target is T1, CsnR (Streptomyces lividans, UniProt A0ABN4DYL3). The data set is described as follows: EMSA equilibrium competition with DNA competitors against labeled csnA-WT probe. The following applies: competitor double-stranded oligonucleotide 0.1 to 125 nM, 0.03 nM labeled csnA-WT probe, ~8.5 pmol CsnR, three independent experiments; read-out: IC50 (nM), effect of mutations in the operator sequence on CsnR binding. The protocol: (§1) For the electrophoretic mobility shift assay (EMSA), pairs of complementary oligonucleotides were annealed, generating double-stranded oligonucleotides csnA-WT (wild type), csnA-M1, csnA-M2, csnA-MM, and csnR-WT (see Table 3). Fifty picomoles of double-stranded oligonucleotide was end labeled with ^[γ-32P]ATP (3,000 Ci/mmol) and 20 U of T4 polynucleotide kinase and purified on a G-25 column. DNA binding reaction mixtures (24 μl) contained 10 mM HEPES (pH 7.9), 10% glycerol, 0.2 mM EDTA, 0.5 mM phenylmethylsulfonyl fluoride (PMSF), 0.25 mM DTT, 1 μg poly(dI-dC), and 150 mM KCl. For equilibrium dissociation constant (KD) determination, various concentrations of labeled csnA-WT or csnR-WT probe (0.1 nM to 1.5 nM) and ˜8.5 pmol of purified CsnR were used. For the determination of the 50% inhibitory concentration (IC50) of the DNA competitors, 0.03 nM labeled csnA-WT probe and ˜8.5 pmol of CsnR were used with various concentrations of competitor double-stranded oligonucleotide (0.1 to 125 nM). For the sugar binding assay, ˜8.5 pmol of CsnR was preincubated with glucose, GlcNAc, galactosamine, GlcN, or chitosan oligosaccharides (GlcN)2 to (GlcN)5 at various concentrations (0.00075 to 75 mM) in the binding reaction mixture for 15 min on ice before the addition of labeled csnA-WT probe (0.03 nM). Reaction mixtures were incubated at room temperature for 15 min with the labeled probe and then subjected to electrophoresis at 4° C. in a prerun gel (15 min) of 6% polyacrylamide (10 mM Tris, 80 mM glycine, 0.4 mM EDTA [pH 8.3]). Following electrophoresis, gels were dried, and band intensities were visualized with a Phosphorlmager™ and estimated with ImageQuant™ software (version 5.2). All determinations were done in triplicate. KD calculations were done with the Michaelis-Menten nonlinear fit (least squares), and the one-site log IC50 nonlinear fit (least squares) was used for IC50 calculations (GraphPad Prism™ version 5.03 for Windows; GraphPad, San Diego, Calif.).
T1 sequence (A0ABN4DYL3 entry or part of it): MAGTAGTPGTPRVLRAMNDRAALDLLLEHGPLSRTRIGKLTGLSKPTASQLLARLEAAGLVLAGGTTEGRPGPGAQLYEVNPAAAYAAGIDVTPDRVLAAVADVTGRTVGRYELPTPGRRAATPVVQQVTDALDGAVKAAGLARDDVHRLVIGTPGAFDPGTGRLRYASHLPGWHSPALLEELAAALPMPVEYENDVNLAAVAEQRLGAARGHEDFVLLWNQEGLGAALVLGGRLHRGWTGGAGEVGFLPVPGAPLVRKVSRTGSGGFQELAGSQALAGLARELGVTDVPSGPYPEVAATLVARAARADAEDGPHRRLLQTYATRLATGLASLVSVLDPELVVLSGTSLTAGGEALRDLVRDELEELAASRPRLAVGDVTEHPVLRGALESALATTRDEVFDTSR
For orientation: A gel shift assay detects complexes by their altered migration in electrophoresis.

For data set [2], the target named is T1, CsnR. Put plainly: EMSA sugar binding assay: interference with CsnR binding to csnA-WT operator. To be noted: for effect on CsnR binding to operator (summary statement): equilibrium competition experiment and IC50 determination; for interference with CsnR binding to the csnA-WT probe: maximal tested concentration of 75 mM; for effect on gel shift pattern of CsnR with csnA-WT operator: saccharide at 500 nM, FIG. 9. The method, then:
as §1, with “([…])” for “(GlcN)5 at various concentrations (0.00075 to 75 mM)”

Take “csnA-M1: double-stranded oligonucleotide, csnA operator mutated at position +2, SEQ ID NO: 43 (DNA CCTCTTCTGGTAGGAAACTGTCCTATCAGT; double-stranded, further chemistry not given here)”: in data set [1], the IC50 was 52.1 nM.

Consider `N[C@H]1C(O)O[C@H](CO)[C@H](O)[C@@H]1O` (stereo partly drawn) [galactosamine], for which, in data set [2], the “effect on CsnR binding to operator (summary statement)” value (“effect on CsnR binding to operator” below) is recorded as “no effect” and the “interference with CsnR binding to the csnA-WT probe” value (shortened to “interference with CsnR binding”) is “do not interfere”.

For `CC(=O)N[C@H]1C(O)O[C@H](CO)[C@@H](O)[C@@H]1O` (stereo partly drawn) [GlcNAc, N-acetyl-D-glucosamine], in data set [2], the “effect on CsnR binding to operator” value was “no effect”, the “interference with CsnR binding” value is reported as “do not interfere” and the “effect on gel shift pattern of CsnR with csnA-WT operator” value (from here on “effect on gel shift pattern of CsnR”) was “no effect”. On to `O=C[C@H](O)[C@@H](O)[C@H](O)[C@H](O)CO` [glucose], for which, in data set [2], the “effect on CsnR binding to operator” value was “no effect”, the “interference with CsnR binding” value is reported as “do not interfere” and the “effect on gel shift pattern of CsnR” value was “no effect”. “csnA-MM: double-stranded oligonucleotide, csnA operator doubly mutated at +2 and +6, SEQ ID NO: 45 (CCTCTTCTGGTAGGAAACTGTCCGATCAGT; double-stranded, further chemistry not given here)”: in data set [1], the IC50 came to 105 nM.

Consider `NC1C(OC2C(CO)OC(OC3C(CO)OC(OC4C(CO)OC(OC5C(CO)OC(O)C(N)C5O)C(N)C4O)C(N)C3O)C(N)C2O)OC(CO)C(O)C1O` (stereo not drawn) [chitosan pentamer], for which the “effect on gel shift pattern of CsnR” value in data set [2] was “strongly affected”. “csnA-M2: double-stranded oligonucleotide, csnA operator mutated at position +6, SEQ ID NO: 44 (DNA CCTCTTCTGGTAGGAAACTTTCCGATCAGT; double-stranded, further chemistry not given here)”: the IC50 in data set [1] is 2.7 nM. On to `N[C@H]1C(O)O[C@H](CO)[C@@H](O)[C@@H]1O` (stereo partly drawn) [GlcN, D-glucosamine], for which, in data set [2], the “effect on CsnR binding to operator” value is listed as “impaired” and the “effect on gel shift pattern of CsnR” value was “strongly affected”. With “csnA-WT: double-stranded oligonucleotide, wild-type csnA operator, SEQ ID NO: 42 (CCTCTTCTGGTAGGAAACTTTCCTATCAGT; double-stranded, further chemistry not given here)”, in data set [1], the half-maximal inhibitory concentration (IC50) came out at 1.3 nM. On to `NC1C(OC2C(CO)OC(O)C(N)C2O)OC(CO)C(O)C1O` (stereo not drawn) [chitosan dimer], for which, in data set [2], the “effect on CsnR binding to operator” value is “best effector” and the “effect on gel shift pattern of CsnR” value is reported as “strongly affected”. Besides, in data set [2] (listed as (GlcN)2), the “effect on CsnR binding to operator” value is “preferential CsnR ligand molecule”.

Broadly, the IC50 is the concentration needed to halve the response being measured.
